# Where a name gives a salt, the structure may show the parent alone.
row,melting point,SMILES
1,266 to 269 °C,"Oc1ccc(-c2cc3cc(O)ccc3o2)c(-c2ccc(OCCN3CCCC3)cc2)c1 (as salt: hydrochloride) [Example 108, 2-[5-Hydroxy-4′-(2-pyrrolidin-1-yl-ethoxy)-biphenyl-2-yl]-benzofuran-5-ol]"
2,215 to 216 °C,"O=C(c1cc(O)cc2cc(-c3ccc(O)cc3)oc12)C(F)(F)F [Example 68, 2,2,2-Trifluoro-1-[5-hydroxy-2-(4-hydroxy-phenyl)-benzofuran-7-yl]-ethanone]"
3,205 °C (dec.),"COc1cc(O)c(C=NO)c2cc(-c3ccc(O)cc3)oc12 [Example 72, 5-Hydroxy-2-(4-hydroxy-phenyl)-7-methoxy-benzofuran-4-carbaldehyde oxime]"
4,265 to 267 °C,"COc1cc(O)c(C#N)c2cc(-c3ccc(O)c(F)c3)oc12 [Example 73a, 2-(3-Fluoro-4-hydroxy-phenyl)-5-hydroxy 7-methoxy-benzofuran-4-carbonitrile]"
5,167 to 169 °C,"Cc1cc(O)ccc1-c1cc2cc(O)ccc2o1 [Example 80, 2-(4-Hydroxy-2-methyl-phenyl)-benzofuran-5-ol]"
6,202 to 204 °C,"Oc1ccc(-c2cc3cc(F)ccc3o2)cc1 [Example 91, 4-(5-Fluoro-benzofuran-2-yl)-phenol]"
7,172 to 174 °C,"CC(C)(C)c1ccc2oc(-c3ccc(O)cc3)cc2c1 [Example 92, 4-(5-tert-Butyl-benzofuran-2-yl)-phenol]"
8,152 to 154 °C,"Oc1ccc(-c2cc3cc(F)cc(F)c3o2)cc1 [Example 94, 4-(5,7-Difluoro-benzofuran-2-yl)-phenol]"
9,203 to 205 °C,"Oc1ccc(-c2cc3cc(Br)cc(Br)c3o2)cc1 [Example 95, 4-(5,7-Dibromo-benzofuran-2-yl)-phenol]"
10,251 to 254 °C,"Nc1cc(O)cc2cc(-c3ccc(O)cc3)oc12 [Example 100, 7-Amino-2-(4-hydroxy-phenyl)-benzofuran-5-ol]"
11,195 °C,"Oc1ccc(-c2cc3cc(O)ccc3o2)c(Br)c1 [Example 102, 2-(2-Bromo-4-hydroxy-phenyl)-benzofuran-5-ol]"
12,186 to 187 °C,"Oc1ccc2oc(-c3cc(OCc4ccccc4)c(O)cc3-c3ccccc3)cc2c1 [Example 104, 2-(4-Benzyloxy-5-hydroxy-biphenyl-2-yl)-benzofuran-5-ol]"
13,238 to 239 °C,"Oc1ccc(-c2cc(O)ccc2-c2cc3cc(O)ccc3o2)cc1 [Example 105, 6-(5-Hydroxy-benzofuran-2-yl)-biphenyl-3,4′-diol]"
14,243 to 251 °C,"CC(=O)c1c(-c2ccc(O)cc2)oc2ccc(O)cc12 [Example 110, 1-[5-Hydroxy-2-(4-hydroxy-phenyl)-benzofuran-3-yl]-ethanone]"
15,217 °C,"CC(=NO)c1c(-c2ccc(O)cc2)oc2ccc(O)cc12 [Example 111, 1-[5-Hydroxy-2-(4-hydroxy-phenyl)-benzofuran-3-yl]-ethanone oxime]"
16,177 to 182 °C,"CC(O)c1c(-c2ccc(O)cc2)oc2ccc(O)cc12 (stereo not drawn) [Example 113, 3-(1-Hydroxy-ethyl)-2-(4-hydroxy-phenyl)-benzofuran-5-ol]"
17,192 to 194 °C,"CC(C)c1cc(O)cc2cc(-c3ccc(O)cc3)oc12 [Example 118, 2-(4-Hydroxy-phenyl)-7-isopropyl-benzofuran-5-ol]"
18,125 to 127 °C,"CON(C)C(=O)c1cc(O)cc2cc(-c3ccc(O)cc3)oc12 [Example 119, 5-Hydroxy-2-(4-hydroxy-phenyl)-benzofuran-7-carboxylic acid methoxy-methyl-amide]"
19,218 to 222 °C,"Oc1ccc2oc(-c3ccc(O)c(F)c3)cc2c1 [Example 126, 2-(3-Fluoro-4-hydroxy-phenyl)-benzofuran-5-ol]"
20,196 to 198 °C,"Oc1ccc(-c2cc3c(Br)c(O)ccc3o2)cc1 [Example 130, 4-Bromo-2-(4-hydroxy-phenyl)-benzofuran-5-ol]"
21,210 to 214 °C,"Oc1ccc(-c2cc3c(Cl)c(O)ccc3o2)cc1 [Example 131, 4-Chloro-2-(4-hydroxy-phenyl)-benzofuran-5-ol]"
22,165 to 171.68 °C,"COc1c(O)ccc2oc(-c3ccc(O)cc3)cc12 [Example 132, 2-(4-Hydroxy-phenyl)-4-methoxy-benzofuran-5-ol]"
23,> 230 °C,"N#Cc1c(O)ccc2oc(-c3ccc(O)cc3)cc12 [Example 135, 5-Hydroxy-2-(4-hydroxy-phenyl)-benzofuran-4-carbonitrile]"
24,260 to 266 °C,"Oc1ccc(-c2cc3cc(O)cc(-c4nnco4)c3o2)cc1 [Example 138, 2-(4-Hydroxy-phenyl)7-[1,3,4]oxadiazol-2-yl-benzofuran-5-ol]"
25,210 to 213 °C,"Oc1ccc(-c2cc3cc(O)cc(CC(F)(F)F)c3o2)cc1 [Example 141, 2-(4-Hydroxy-phenyl)-7-(2,2,2-trifluoro-ethyl)-benzofuran-5-ol]"
26,> 300 °C,"O=C(O)c1ccc2oc(-c3ccc(O)cc3)cc2c1 [Example 143, 2-(4-Hydroxy-phenyl)-benzofuran-5-carboxylic acid]"

# Further lines, the compound ahead of its results:
row,SMILES,melting point
1,"CCCc1cc(O)cc2cc(-c3ccc(O)cc3)oc12 (as salt: HCl) [Example 35, 2-(4-Hydroxy-phenyl)-7-propyl-benzofuran-5-ol]",178 to 180 °C
2,"COc1ccc(-c2cc3cc(OC)cc(CO)c3o2)cc1 [Example 3, [5-Methoxy-2-(4-methoxy-phenyl)-benzofuran-7-yl]-methanol]",128 to 130 °C
3,"Oc1ccc(-c2cc3cc(O)cc(CBr)c3o2)cc1 [Example 4, 7-Bromomethyl-2-(4-hydroxy-phenyl)-benzofuran-5-ol]",337 to 339 °C
4,"COCc1cc(O)cc2cc(-c3ccc(O)cc3)oc12 [Example 6, 2-(4-Hydroxy-phenyl)-7-methoxymethyl-benzofuran-5-ol]",186 to 188 °C
5,"CCOCc1cc(O)cc2cc(-c3ccc(O)cc3)oc12 [Example 7, 7-Ethoxymethyl-2-(4-hydroxy-phenyl)-benzofuran-5-ol]",166 to 168 °C
6,"CC(C)OCc1cc(O)cc2cc(-c3ccc(O)cc3)oc12 [Example 8, 2-(4-Hydroxy-phenyl)-7-isopropoxymethyl benzofuran-5-ol]",195 to 197 °C
7,"CSCc1cc(O)cc2cc(-c3ccc(O)cc3)oc12 [Example 10, 2-(4-Hydroxy-phenyl)-7-methylsulfanylmethyl-benzofuran-5-ol]",188 to 190 °C
8,"CCSCc1cc(O)cc2cc(-c3ccc(O)cc3)oc12 [Example 11, 7-Ethylsulfanylmethyl-2-(4-hydroxy-phenyl)-benzofuran-5-ol]",181 to 183 °C
9,"Oc1ccc(-c2cc3cc(O)cc(CSc4ccccc4)c3o2)cc1 [Example 12, 2-(4-Hydroxy-phenyl)-7-phenylsulfanylmethyl-benzofuran-5-ol]",175 to 177 °C
10,"N#CSCc1cc(O)cc2cc(-c3ccc(O)cc3)oc12 [Example 15, 2-(4-Hydroxy-phenyl)-7-thiocyanatomethyl-benzofuran-5-ol]",190 to 192 °C
11,"Oc1ccc(-c2cc3cc(O)cc(Cn4ccnc4)c3o2)cc1 [Example 16, 2-(4-Hydroxy-phenyl)-7-imidazol-1-ylmethyl-benzofuran-5-ol]",269 to 271 °C
12,"CC(C#N)c1cc(O)cc2cc(-c3ccc(O)cc3)oc12 (stereo not drawn) [Example 21, 2-[5-Hydroxy-2-(4-hydroxy-phenyl)-benzofuran-7-yl]-propionitrile]",183 to 185 °C
13,"CC(C)(C#N)c1cc(O)cc2cc(-c3ccc(O)cc3)oc12 [Example 22, 2-[5-Hydroxy-2-(4-hydroxy-phenyl)-benzofuran-7-yl]-2-methyl-propionitrile]",284 °C
14,"O=C(O)c1cc(O)cc2cc(-c3ccc(O)cc3)oc12 [Example 24, 5-Hydroxy-2-(4-hydroxy-phenyl)-benzofuran-7-carboxylic acid]",260 to 262 °C
15,"OCc1cc(O)cc2cc(-c3ccc(O)cc3)oc12 [Example 25, 7-Hydroxymethyl-2-(4-hydroxy-phenyl)-benzofuran-5-ol]",258 to 260 °C
16,"CCc1cc(O)cc2cc(-c3ccc(O)cc3)oc12 [Example 30, 7-Ethyl-2-(4-hydroxy-phenyl)-benzofuran-5-ol]",218 to 220 °C
17,"CC(C)OC(=O)c1cc(O)cc2cc(-c3ccc(O)cc3)oc12 [Example 36, 5-Hydroxy-2(4hydroxy-phenyl)-benzofuran-7-carboxylic acid Isopropyl ester]",> 250 °C
18,"CCCOC(=O)c1cc(O)cc2cc(-c3ccc(O)cc3)oc12 [Example 37, 5-Hydroxy-2-(4-hydroxy-phenyl)-benzofuran-7-carboxylic acid propyl ester]",220 to 222 °C
19,"COC(=O)c1cc(O)cc2cc(-c3ccc(O)cc3)oc12 [Example 38, 5-Hydroxy-2-(4-hydroxy-phenyl)-benzofuran-7-carboxylic acid methyl ester]",236 to 238 °C
20,"CCOC(=O)c1cc(O)cc2cc(-c3ccc(O)cc3)oc12 [Example 39, 5-Hydroxy-2-(4-hydroxy-phenyl)-benzofuran-7-carboxylic acid ethyl ester]",221 to 223 °C
21,"COC(=O)C=Cc1cc(O)cc2cc(-c3ccc(O)cc3)oc12 [Example 59, 3-[5-Hydroxy-2-(4-hydroxy-phenyl)benzofuran-7-yl]-acrylic acid methyl ester]",231 to 234 °C
22,"COC(=O)CCc1cc(O)cc2cc(-c3ccc(O)cc3)oc12 [Example 60, 3-[5-Hydroxy-2-(4-hydroxy-phenyl)-benzofuran-7-yl]-propionic acid methyl ester]",167 to 170 °C
23,"NC(=O)C=Cc1cc(O)cc2cc(-c3ccc(O)cc3)oc12 [Example 61, 3-[5-Hydroxy-2-(4-hydroxyphenyl)-benzofuran-7-yl]-acrylamide]",275 °C (dec.)
24,"Oc1ccc(-c2cc3c(Br)c(O)cc(Br)c3o2)cc1 [Example 63, 4,7-Dibromo-2-(4-hydroxy-phenyl)-benzofuran-5-ol]",215 to 217 °C
25,"C=Cc1cc(O)cc2cc(-c3ccc(O)cc3)oc12 [Example 67, 2-(4-Hydroxy-phenyl)-7-vinyl-benzofuran-5-ol]",182 to 184 °C
